# Assays:
# Experiment in all cases: Bliss excess, mean over the matrix (fraction); higher = more synergy
# [1] = system: C-33-A (Cervical Carcinoma)
# Method in brief: (§1)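 Cell lines in DMEM/F12 or RPMI with 10% FBS were plated in 1536-well plates, held 24 hours at 37°C, 5% CO2, then given two-drug dose matrices for 72 hours (DMSO typically 0.2%). Viability was read by CellTiter-Glo 2.0 luminescence and scaled as inhibition from 0 (vehicle wells) to 1 (blank wells). Combination Emax is the second-highest inhibition in the matrix; Bliss excess is observed combination effect minus expected EA + EB − EA·EB, EA and EB being single-agent effects.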
# [2] = system: CPC-N (Small Cell Lung Carcinoma)
# Method in brief: as §1
# [3] = system: DBTRG-05MG (Glioblastoma)
# Method in brief: as §1
# ES6 (Ewing's Sarcoma) = system: ES6 (Ewing's Sarcoma)
# Method in brief: as §1
# KALS-1 (Glioblastoma) = system: KALS-1 (Glioblastoma)
# Method in brief: as §1
# [4] = system: LCLC-103H (Non-Small Cell Lung Carcinoma)
# Method in brief: as §1
# [5] = system: LS-1034 (Colorectal Carcinoma)
# Method in brief: as §1
# [6] = system: MOLP-8 (Plasma Cell Myeloma)
# Method in brief: as §1
# [7] = system: NAMALWA (Burkitt's Lymphoma)
# Method in brief: as §1
# [8] = system: NCI-H1963 (Small Cell Lung Carcinoma)
# Method in brief: as §1
# [9] = system: OAW-28 (Ovarian Carcinoma)
# Method in brief: as §1
# [10] = system: PL4 (Pancreatic Carcinoma)
# Method in brief: as §1
# [11] = system: RCC-JW (Kidney Carcinoma)
# Method in brief: as §1
# [12] = system: SAT (Head and Neck Carcinoma)
# Method in brief: as §1
# [13] = system: SCC-4 (Oral Cavity Carcinoma)
# Method in brief: as §1
# SK-N-SH (Neuroblastoma) = system: SK-N-SH (Neuroblastoma)
# Method in brief: as §1
# [14] = system: SKG-IIIa (Cervical Carcinoma)
# Method in brief: as §1
# [15] = system: SNU-C2B (Colorectal Carcinoma)
# Method in brief: as §1
# [16] = system: SUP-M2 (T-Cell Non-Hodgkin's Lymphoma)
# Method in brief: as §1
# [17] = system: SiHa (Cervical Carcinoma)
# Method in brief: as §1
SMILES,Bliss excess [1],Bliss excess [2],Bliss excess [3],Bliss excess (ES6 (Ewing's Sarcoma)),Bliss excess (KALS-1 (Glioblastoma)),Bliss excess [4],Bliss excess [5],Bliss excess [6],Bliss excess [7],Bliss excess [8],Bliss excess [9],Bliss excess [10],Bliss excess [11],Bliss excess [12],Bliss excess [13],Bliss excess (SK-N-SH (Neuroblastoma)),Bliss excess [14],Bliss excess [15],Bliss excess [16],Bliss excess [17]
"COc1cc2c(cc1OCCCCCOc1cc3c(cc1OC)C(=O)N1C=C(C)C[C@H]1C=N3)N=C[C@@H]1CC(C)=CN1C2=O [SG3199] + O=C(c1cc(Cc2n[nH]c(=O)c3ccccc23)ccc1F)N1CCN(C(=O)C2CC2)CC1 [Olaparib] (first compound max 0.001 µM, 7x7, partner max 10 µM)",-0.0476,-0.0062,-0.0357,-0.0231,-0.0155,-0.0506,-0.0462,0.002,0.0018,0.025,-0.0263,0.0304,-0.0231,-0.0203,-0.0545,-0.0454,-0.0391,-0.0374,0.0274,-0.0291
"Cc1cc2ncnn2cc1Nc1ncc2c(n1)n(C1CCOCC1)c(=O)n2C [AZD7648] + C[C@@H]1COCCN1C2=NC(=NC(=C2)C3(CC3)[S@](=N)(=O)C)C4=C5C=CNC5=NC=C4 [AZD6738] (first compound max 10 µM, 7x7, partner max 10 µM)",0.007,-0.0013,-0.0174,-0.0082,0.0135,0.042,0.0327,0.0234,-0.0089,0.0138,0.033,-0.0396,0.0176,0.0561,-0.025,0.0026,0.0412,-0.0036,0.0562,0.0466
"COc1nnc2ccc(N3CCC(c4ccc(OCCN5CCN(C)C(=O)[C@H]5C)cc4)CC3)nn12 [AZD5153] + CCN(CCO)CCCOc1ccc2c(Nc3cc(CC(=O)Nc4cccc(F)c4)[nH]n3)ncnc2c1 [AZD2811] (first compound max 1 µM, 7x7, partner max 1 µM)",0.0198,-0.0601,-0.0036,-0.0476,-0.0911,-0.0104,-0.046,0.0011,-0.0493,-0.0585,-0.0115,-0.0333,-0.0416,-0.0368,-0.109,-0.0658,-0.0193,-0.0223,-0.0132,0.0047
"CN(CCO)CC[C@H](CSc1ccccc1)Nc1ccc(S(=O)(=O)NC(=O)c2ccc(N3CCC([C@@H](O)c4ccccc4-c4ccc(Cl)cc4)CC3)cc2)cc1S(=O)(=O)C(F)(F)F [AZD4320] + CCN(CCO)CCCOc1ccc2c(Nc3cc(CC(=O)Nc4cccc(F)c4)[nH]n3)ncnc2c1 [AZD2811] (first compound max 1 µM, 7x7, partner max 1 µM)",-0.0283,0.0092,0.0363,-0.0229,0.0804,-0.0157,-0.0337,0.0283,0.0873,0.0054,0.0773,0.0251,-0.0023,0.0112,0.0936,-0.143,-0.015,-0.0031,0.0503,-0.0219
"C=CCn1c(=O)c2cnc(Nc3ccc(N4CCN(C)CC4)cc3)nc2n1-c1cccc(C(C)(C)O)n1 [AZD1775] + O=C(c1cc(Cc2n[nH]c(=O)c3ccccc23)ccc1F)N1CCN(C(=O)C2CC2)CC1 [Olaparib] (first compound max 1 µM, partner max 10 µM)",0.0051,0.0183,-0.0747,0.0465,-0.0611,-0.0334,0.0299,-0.0294,-0.0133,-0.0252,-0.0237,0.0037,-0.0005,-0.0474,-0.0341,-0.0947,-0.0648,0.0056,0.0276,-0.0444
"Cn1cnc2c(F)c(Nc3ccc(Br)cc3Cl)c(C(=O)NOCCO)cc21 [Selumetinib] + CCN(CCO)CCCOc1ccc2c(Nc3cc(CC(=O)Nc4cccc(F)c4)[nH]n3)ncnc2c1 [AZD2811] (first compound max 10 µM, 7x7, partner max 1 µM)",0.0162,-0.0474,0.016,-0.0508,-0.0093,-0.0104,-0.0556,-0.017,0.0244,0.0053,0.0388,0.0097,-0.0464,-0.0151,0.0003,-0.0557,-0.0486,0.0193,-0.001,-0.0355
"Cn1cnc2c(F)c(Nc3ccc(Br)cc3Cl)c(C(=O)NOCCO)cc21 [Selumetinib] + C=CCn1c(=O)c2cnc(Nc3ccc(N4CCN(C)CC4)cc3)nc2n1-c1cccc(C(C)(C)O)n1 [AZD1775] (first compound max 10 µM, partner max 1 µM)",0.021,-0.0858,0.0098,-0.0564,-0.0755,-0.0316,-0.038,0.0535,-0.0104,-0.0834,-0.0604,-0.0685,-0.0542,-0.0151,-0.0376,-0.11,-0.0733,-0.0667,0.0582,-0.0422
"CN(CCO)CC[C@H](CSc1ccccc1)Nc1ccc(S(=O)(=O)NC(=O)c2ccc(N3CCC([C@@H](O)c4ccccc4-c4ccc(Cl)cc4)CC3)cc2)cc1S(=O)(=O)C(F)(F)F [AZD4320] + C=CCn1c(=O)c2cnc(Nc3ccc(N4CCN(C)CC4)cc3)nc2n1-c1cccc(C(C)(C)O)n1 [AZD1775] (first compound max 1 µM, partner max 1 µM)",-0.0246,0.0249,0.0555,0.0586,0.0252,0.0297,0.0344,0.0782,-0.0219,0.0565,0.0652,-0.0586,0.0546,-0.0251,0.0838,-0.0141,0.0322,-0.0143,0.0681,-0.0358
"Cc1c2c(nn1C)CSCc1cc(n(C)n1)CSc1cc(c3ccccc3c1)OCCCc1c(C(=O)O)n(C)c3c-2c(Cl)ccc13 [AZD5991] + Cn1cnc2c(F)c(Nc3ccc(Br)cc3Cl)c(C(=O)NOCCO)cc21 [Selumetinib] (first compound max 1 µM, 7x7, partner max 3 µM)",0.0077,0.0185,0.0307,-0.039,-0.0897,-0.0774,0.0513,0.0291,-0.0172,0.0518,0.089,-0.0325,-0.0319,0.0193,0.0478,-0.0515,-0.0076,0.0671,0.048,0.0015
"CC(=O)c1c(C)c2cnc(Nc3ccc(N4CCNCC4)cn3)nc2n(C2CCCC2)c1=O [Palbociclib] + CC1(C)CCC(CN2CCN(c3ccc(C(=O)NS(=O)(=O)c4ccc(NCC5CCOCC5)c([N+](=O)[O-])c4)c(Oc4cnc5[nH]ccc5c4)c3)CC2)=C(c2ccc(Cl)cc2)C1 [Venetoclax] (first compound max 10 µM, 7x7, partner max 1 µM)",-0.0474,-0.0394,-0.0477,-0.0387,-0.0396,-0.0083,-0.12,0.0278,-0.0648,0.226,-0.0112,-0.0521,-0.0539,-0.0489,-0.0637,-0.0185,-0.0667,-0.036,-0.0058,-0.0347
"CC1(C)CCC(CN2CCN(c3ccc(C(=O)NS(=O)(=O)c4ccc(NCC5CCOCC5)c([N+](=O)[O-])c4)c(Oc4cnc5[nH]ccc5c4)c3)CC2)=C(c2ccc(Cl)cc2)C1 [Venetoclax] + CCN(CCO)CCCOc1ccc2c(Nc3cc(CC(=O)Nc4cccc(F)c4)[nH]n3)ncnc2c1 [AZD2811] (first compound max 1 µM, 7x7, partner max 1 µM)",-0.0928,-0.048,-0.0171,-0.0166,0.0005,-0.0756,-0.0328,0.025,0.0894,0.0196,0.0375,-0.0704,-0.0068,-0.0043,-0.0404,0.0471,0.0225,0.0098,0.0126,-0.0107
"CC(=O)c1c(C)c2cnc(Nc3ccc(N4CCNCC4)cn3)nc2n(C2CCCC2)c1=O [Palbociclib] + Cn1cnc2c(F)c(Nc3ccc(Br)cc3Cl)c(C(=O)NOCCO)cc21 [Selumetinib] (first compound max 10 µM, 7x7, partner max 10 µM)",0.0164,-0.0271,0.0013,0.0235,-0.0353,0.0012,0.0354,0.0926,-0.0123,0.005,-0.0301,-0.0553,-0.0397,0.0504,0.0091,-0.0238,-0.0394,0.0282,0.0342,-0.0404
